± gives the expanded uncertainty stated by the source.
Test: xn = mol fraction of the nth substance listed
Conditions: Liquid, Vibrating tube method

COC(=O)OC [dimethyl carbonate] + CO
mass density [kg/m3]
Conditions | 100 kPa | 5000 kPa | 10000 kPa | 15000 kPa | 20000 kPa | 25000 kPa | 30000 kPa | 35000 kPa | 40000 kPa
303.15 K, x1 = 0.0253 | – | – | – | – | – | – | – | 825.6 ± 1.4 | 829 ± 1.4
303.15 K, x1 = 0.0503 | – | – | – | – | – | – | – | 839.12 ± 1.4 | 842.54 ± 1.4
303.15 K, x1 = 0.0745 | – | – | – | – | – | – | – | 851.58 ± 1.4 | 855.01 ± 1.4
303.15 K, x1 = 0.101 | – | – | – | – | – | – | – | 864.54 ± 1.4 | 867.99 ± 1.4
303.15 K, x1 = 0.1502 | – | – | – | – | – | – | – | 886.72 ± 1.4 | 890.21 ± 1.4
303.15 K, x1 = 0.2059 | – | – | – | – | – | – | – | 909.73 ± 1.4 | 913.3 ± 1.4
303.15 K, x1 = 0.25 | – | – | – | – | – | – | – | 926.34 ± 1.4 | 929.93 ± 1.4
303.15 K, x1 = 0.3004 | – | – | – | – | – | – | – | 943.76 ± 1.5 | 947.37 ± 1.5
303.15 K, x1 = 0.3426 | – | – | – | – | – | – | – | 957.21 ± 1.5 | 960.84 ± 1.5
303.15 K, x1 = 0.3984 | – | – | – | – | – | – | – | 973.63 ± 1.5 | 977.28 ± 1.5
303.15 K, x1 = 0.4514 | – | – | – | – | – | – | – | 987.95 ± 1.5 | 991.62 ± 1.5
303.15 K, x1 = 0.5054 | – | – | – | – | – | – | – | 1001.4 ± 1.5 | 1005.09 ± 1.5
303.15 K, x1 = 0.5509 | – | – | – | – | – | – | – | 1011.94 ± 1.5 | 1015.64 ± 1.5
303.15 K, x1 = 0.6002 | – | – | – | – | – | – | – | 1022.49 ± 1.5 | 1026.2 ± 1.5
303.15 K, x1 = 0.6469 | – | – | – | – | – | – | – | 1031.7 ± 1.5 | 1035.43 ± 1.5
303.15 K, x1 = 0.6993 | – | – | – | – | – | – | – | 1041.37 ± 1.5 | 1045.11 ± 1.5
303.15 K, x1 = 0.7496 | – | – | – | – | – | – | – | 1050.01 ± 1.5 | 1053.76 ± 1.5
303.15 K, x1 = 0.799 | – | – | – | – | – | – | – | 1058.05 ± 1.6 | 1061.82 ± 1.6
303.15 K, x1 = 0.837 | – | – | – | – | – | – | 1060.13 ± 1.6 | 1063.82 ± 1.6 | 1067.59 ± 1.6
303.15 K, x1 = 0.9093 | – | – | – | – | – | – | 1070.62 ± 1.6 | 1074.26 ± 1.6 | 1078.04 ± 1.6
303.15 K, x1 = 0.9239 | – | – | – | – | – | – | 1072.65 ± 1.6 | 1076.3 ± 1.6 | 1080.08 ± 1.6
303.15 K, x1 = 0.9575 | – | – | – | – | – | – | 1077.23 ± 1.6 | 1080.88 ± 1.6 | 1084.67 ± 1.6
303.15 K, x1 = 0.9861 | – | – | – | – | – | – | 1081.06 ± 1.6 | 1084.71 ± 1.6 | 1088.51 ± 1.6
303.15 K, x1 = 1 | – | – | – | – | – | – | 1082.9 ± 0.61 | 1086.6 ± 0.63 | 1090.4 ± 0.64
308.15 K, x1 = 0.0253 | 791.22 ± 1.4 | 795.98 ± 1.4 | 800.77 ± 1.4 | 805.37 ± 1.4 | 809.72 ± 1.4 | 814 ± 1.4 | 817.9 ± 1.4 | 821.58 ± 1.4 | 825.25 ± 1.4
308.15 K, x1 = 0.0503 | 804.54 ± 1.4 | 809.3 ± 1.4 | 814.1 ± 1.4 | 818.7 ± 1.4 | 823.06 ± 1.4 | 827.34 ± 1.4 | 831.25 ± 1.4 | 834.92 ± 1.4 | 838.6 ± 1.4
308.15 K, x1 = 0.0745 | 816.8 ± 1.4 | 821.56 ± 1.4 | 826.37 ± 1.4 | 831.02 ± 1.4 | 835.38 ± 1.4 | 839.68 ± 1.4 | 843.59 ± 1.4 | 847.26 ± 1.4 | 850.9 ± 1.4
308.15 K, x1 = 0.101 | 829.61 ± 1.4 | 834.41 ± 1.4 | 839.23 ± 1.4 | 843.89 ± 1.4 | 848.26 ± 1.4 | 852.56 ± 1.4 | 856.52 ± 1.4 | 860.19 ± 1.4 | 863.84 ± 1.4
308.15 K, x1 = 0.1502 | 851.5 ± 1.4 | 856.36 ± 1.4 | 861.2 ± 1.4 | 865.86 ± 1.4 | 870.28 ± 1.4 | 874.59 ± 1.4 | 878.57 ± 1.4 | 882.29 ± 1.4 | 885.94 ± 1.4
308.15 K, x1 = 0.2059 | 874.17 ± 1.4 | 879.02 ± 1.4 | 883.88 ± 1.4 | 888.55 ± 1.4 | 892.98 ± 1.4 | 897.3 ± 1.4 | 901.3 ± 1.4 | 905.01 ± 1.4 | 908.67 ± 1.4
308.15 K, x1 = 0.25 | 890.57 ± 1.4 | 895.46 ± 1.4 | 900.33 ± 1.4 | 905.01 ± 1.4 | 909.44 ± 1.4 | 913.77 ± 1.4 | 917.78 ± 1.4 | 921.49 ± 1.4 | 925.16 ± 1.4
308.15 K, x1 = 0.3004 | 907.81 ± 1.4 | 912.71 ± 1.4 | 917.59 ± 1.4 | 922.27 ± 1.4 | 926.71 ± 1.4 | 931.05 ± 1.4 | 935.06 ± 1.4 | 938.77 ± 1.4 | 942.45 ± 1.5
308.15 K, x1 = 0.3426 | 921.16 ± 1.4 | 926.05 ± 1.4 | 930.95 ± 1.4 | 935.63 ± 1.4 | 940.07 ± 1.4 | 944.37 ± 1.5 | 948.39 ± 1.5 | 952.1 ± 1.5 | 955.78 ± 1.5
308.15 K, x1 = 0.3984 | 937.46 ± 1.4 | 942.41 ± 1.4 | 947.31 ± 1.5 | 952 ± 1.5 | 956.44 ± 1.5 | 960.75 ± 1.5 | 964.78 ± 1.5 | 968.49 ± 1.5 | 972.13 ± 1.5
308.15 K, x1 = 0.4514 | 951.72 ± 1.5 | 956.66 ± 1.5 | 961.58 ± 1.5 | 966.27 ± 1.5 | 970.72 ± 1.5 | 975.04 ± 1.5 | 979.08 ± 1.5 | 982.78 ± 1.5 | 986.43 ± 1.5
308.15 K, x1 = 0.5054 | 965.11 ± 1.5 | 970.05 ± 1.5 | 974.93 ± 1.5 | 979.62 ± 1.5 | 984.08 ± 1.5 | 988.4 ± 1.5 | 992.45 ± 1.5 | 996.15 ± 1.5 | 999.81 ± 1.5
308.15 K, x1 = 0.5509 | 975.56 ± 1.5 | 980.5 ± 1.5 | 985.39 ± 1.5 | 990.08 ± 1.5 | 994.54 ± 1.5 | 998.87 ± 1.5 | 1002.92 ± 1.5 | 1006.62 ± 1.5 | 1010.28 ± 1.5
308.15 K, x1 = 0.6002 | 986.01 ± 1.5 | 990.95 ± 1.5 | 995.85 ± 1.5 | 1000.49 ± 1.5 | 1004.95 ± 1.5 | 1009.29 ± 1.5 | 1013.4 ± 1.5 | 1017.09 ± 1.5 | 1020.76 ± 1.5
308.15 K, x1 = 0.6469 | 995.19 ± 1.5 | 1000.13 ± 1.5 | 1005.03 ± 1.5 | 1009.68 ± 1.5 | 1014.14 ± 1.5 | 1018.48 ± 1.5 | 1022.55 ± 1.5 | 1026.24 ± 1.5 | 1029.87 ± 1.5
308.15 K, x1 = 0.6993 | 1004.82 ± 1.5 | 1009.76 ± 1.5 | 1014.62 ± 1.5 | 1019.27 ± 1.5 | 1023.74 ± 1.5 | 1028.03 ± 1.5 | 1032.11 ± 1.5 | 1035.8 ± 1.5 | 1039.42 ± 1.5
308.15 K, x1 = 0.7496 | 1013.47 ± 1.5 | 1018.4 ± 1.5 | 1023.27 ± 1.5 | 1027.93 ± 1.5 | 1032.35 ± 1.5 | 1036.65 ± 1.5 | 1040.72 ± 1.5 | 1044.41 ± 1.5 | 1048.05 ± 1.5
308.15 K, x1 = 0.799 | 1021.43 ± 1.5 | 1026.37 ± 1.5 | 1031.19 ± 1.5 | 1035.85 ± 1.5 | 1040.27 ± 1.5 | 1044.57 ± 1.5 | 1048.66 ± 1.5 | 1052.34 ± 1.5 | 1055.98 ± 1.6
308.15 K, x1 = 0.837 | 1027.27 ± 1.5 | 1032.2 ± 1.5 | 1037.04 ± 1.5 | 1041.64 ± 1.5 | 1046.06 ± 1.5 | 1050.37 ± 1.5 | 1054.46 ± 1.5 | 1058.14 ± 1.6 | 1061.73 ± 1.6
308.15 K, x1 = 0.9093 | 1037.72 ± 1.5 | 1042.65 ± 1.5 | 1047.49 ± 1.5 | 1052.1 ± 1.5 | 1056.52 ± 1.6 | 1060.79 ± 1.6 | 1064.88 ± 1.6 | 1068.56 ± 1.6 | 1072.16 ± 1.6
308.15 K, x1 = 0.9239 | 1039.75 ± 1.5 | 1044.68 ± 1.5 | 1049.52 ± 1.5 | 1054.13 ± 1.5 | 1058.56 ± 1.6 | 1062.82 ± 1.6 | 1066.87 ± 1.6 | 1070.55 ± 1.6 | 1074.15 ± 1.6
308.15 K, x1 = 0.9575 | 1044.31 ± 1.5 | 1049.24 ± 1.5 | 1054.08 ± 1.5 | 1058.69 ± 1.6 | 1063.12 ± 1.6 | 1067.39 ± 1.6 | 1071.43 ± 1.6 | 1075.12 ± 1.6 | 1078.72 ± 1.6
308.15 K, x1 = 0.9861 | 1048.07 ± 1.5 | 1053 ± 1.5 | 1057.85 ± 1.6 | 1062.46 ± 1.6 | 1066.89 ± 1.6 | 1071.16 ± 1.6 | 1075.26 ± 1.6 | 1078.94 ± 1.6 | 1082.54 ± 1.6
308.15 K, x1 = 1 | 1049.91 ± 0.56 | 1054.84 ± 0.56 | 1059.69 ± 0.57 | 1064.3 ± 0.58 | 1068.73 ± 0.59 | 1073 ± 0.6 | 1077.1 ± 0.61 | 1080.78 ± 0.62 | 1084.38 ± 0.63

Reference: the NIST ThermoML archive (doi:10.1016/j.jct.2019.02.011)
